Assays:
Type in all cases: cell-based
human P2X2/3 receptors = biological target: T1, human P2X2/3 receptors (Homo sapiens, UniProt P56373+Q9UBL9); test: Intracellular calcium measurement, antagonist activity at human P2X2/3 receptors (hP2X23 1321N1), Fluo8; details: for IC50: column 4); 1321N1 cells, human P2X2/3, Fluo8, agonist ATP at EC50; read-out: 4) hP2X2/3 IC50 [nM] (1321N1); for hP2X23/hP2X3* Selectivity (1321N1): ratio of column 4) hP2X2/3 to column 3) hP2X3, 1321N1
T1 construct: expressed in transfected cells; host or cells: human astrocytoma 1321N1 (1312N1 [sic])
T1 sequence (P56373 1-397): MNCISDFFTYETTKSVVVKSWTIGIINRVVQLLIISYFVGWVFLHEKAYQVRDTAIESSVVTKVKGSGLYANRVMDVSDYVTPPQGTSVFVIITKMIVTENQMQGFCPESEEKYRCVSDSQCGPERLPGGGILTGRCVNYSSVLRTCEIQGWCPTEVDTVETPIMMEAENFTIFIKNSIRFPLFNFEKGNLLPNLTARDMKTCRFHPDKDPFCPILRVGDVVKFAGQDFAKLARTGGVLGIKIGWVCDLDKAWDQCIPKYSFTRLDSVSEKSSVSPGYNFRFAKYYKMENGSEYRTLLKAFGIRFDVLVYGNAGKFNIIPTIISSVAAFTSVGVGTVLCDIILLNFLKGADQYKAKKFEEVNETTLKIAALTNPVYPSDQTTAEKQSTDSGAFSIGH
T1 sequence (Q9UBL9 1-471): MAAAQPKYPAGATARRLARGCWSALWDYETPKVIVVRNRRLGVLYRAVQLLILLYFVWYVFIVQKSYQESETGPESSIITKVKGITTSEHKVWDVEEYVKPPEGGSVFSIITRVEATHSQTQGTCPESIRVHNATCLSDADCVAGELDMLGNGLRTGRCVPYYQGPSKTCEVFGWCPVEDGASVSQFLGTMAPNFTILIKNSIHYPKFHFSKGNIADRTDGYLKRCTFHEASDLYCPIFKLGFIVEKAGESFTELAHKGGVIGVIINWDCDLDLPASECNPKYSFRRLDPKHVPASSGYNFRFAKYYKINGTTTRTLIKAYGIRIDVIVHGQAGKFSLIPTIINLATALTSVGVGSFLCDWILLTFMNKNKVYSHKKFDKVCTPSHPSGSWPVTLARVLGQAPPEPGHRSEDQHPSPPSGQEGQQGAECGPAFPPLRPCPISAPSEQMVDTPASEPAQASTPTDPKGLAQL
Procedure, shortened: (§1)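 Antagonism was assessed by decrease of the Fluo8 calcium signal after ATP challenge, with ATP dosed at the EC50 of whichever receptor was tested. Stable 1321N1 astrocytoma lines expressed either human P2X3 or both P2X2 and P2X3, and were dye-loaded 60 min before a 10 min compound incubation.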

human P2X3 receptor [1] = biological target: T2, human P2X3 receptor (Homo sapiens, UniProt P56373); test: Intracellular calcium measurement to assess antagonist activity at human P2X3 receptors (hP2X3 CHO), photina luminescence; design: expressed in transfected cells; host or cells: Chinese hamster ovary (CHO) cells; details: column 2), CHO cells, agonist α,β-methylene-ATP at EC50
T2 sequence (P56373 1-397): T1 sequence (P56373 1-397)
Procedure, shortened: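 Antagonism read as lowered photina luminescence after agonist stimulation in recombinant hP2X3/photina CHO cells. Cells seeded one day earlier (30 °C) and reconstituted with 5 μg/ml coelenterazine in 2 mM Ca-tyrode buffer for 3 h at 37 °C before measurement.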

human P2X3 receptor [2] = biological target: T2, human P2X3 receptor; test: Intracellular calcium measurement to assess antagonist activity at human P2X3 receptors (hP2X3 FLIPR); design: expressed in transfected cells; host or cells: human astrocytoma 1321N1 (1312N1 [sic]); details: head prints (1321N1); read-out: 1) hP2X3 IC50 [nM] (1321N1)
Procedure: 1) Intracellular Calcium Measurement to Assess Antagonist Activity at Human P2X3 Receptors (hP2X3 FLIPR)
A fluorescent imaging plate reader (FLEX/FLIPR station; Molecular Devices) was used to monitor intracellular calcium levels using the calcium-chelating dye Fluo-4 (Molecular Probes). The excitation and emission wavelengths used to monitor fluorescence were 470-495 nm and 515-575 nm, respectively. The human astrocytoma […] cells expressing purinergic receptors P2X3 (human) were plated at a density of 15,000 cells/well in collagen—coated 384-well plates approximately 20 hours before beginning the assay. […] The dye supernatant was removed and replaced with 45 μl probenecid buffer (Hank's balanced salt solution, 20 mM HEPES, 0.5 mM CaCl2, 0.5 mM MgCl2, 0.1% BSA, 5 mM probenecid, 10 mM D-glucose monohydrate, pH=7.4). The test compounds were added in a volume of 5 μl and allowed to incubate for 30 min at 37° C. The final assay DMSO concentration is 1%. […] The fluorescence was measured for an interval of 90 sec at 2 sec intervals and analyzed based on the increase in peak relative fluorescence units (RFU) compared to the basal fluorescence. Peak fluorescence was used to determine the response to agonist obtained at each concentration of test compound by the following equation: Response=100*(RFU(test compound)−RFU(control))/(RFU(DMSO)−RFU(control))
The Examples were tested in triplicates per plate and mean values were plotted in Excel XLFit to determine IC50 values at the human P2X3 and human P2X2/3 receptors, percentage of maximal inhibition and the Hill coefficients.

human P2X3 receptor [3] = biological target: T2, human P2X3 receptor; test: Intracellular calcium measurement, antagonist activity at human P2X3 receptors (hP2X3 1321N1), Fluo8; design: expressed in transfected cells; host or cells: human astrocytoma 1321N1 (1312N1 [sic]); details: column 3); 1321N1 cells, human P2X3, Fluo8, agonist ATP at EC50
Procedure, shortened: as §1

| SMILES | IC50 (human P2X2/3 receptors) [nM] | hP2X23/hP2X3* Selectivity (1321N1) (human P2X2/3 receptors) | IC50 (human P2X3 receptor [1]) [nM] | IC50 (human P2X3 receptor [2]) [nM] | IC50 (human P2X3 receptor [3]) [nM] |
| --- | --- | --- | --- | --- | --- |
| C[C@H](O)CN1Cc2c(n(CC(=O)Nc3ccc(F)cn3)c3cc(C(C)(C)C)nn3c2=O)C1=O [Example 54] | > 32000 | >122 | 155 | 215 | 263 |
| Cc1cc2n(CC(=O)Nc3ccc(Cl)cn3)c3c(c(=O)n2n1)CN(C(C)C)C3=O [Example 42] |  |  |  | 35 |  |
| Cc1cc2n(CC(=O)Nc3ccc(F)cn3)c3c(c(=O)n2n1)CN([C@H](C)C1CC1)C3=O [Example 55] | 10800 | 93 | 195 | 104 | 117 |
| CC(C)(C)c1cc2n(CC(=O)Nc3ccc(F)cn3)c3c(c(=O)n2n1)CN(CC(=O)N1CCCC1)C3=O [Example 38] | > 21000 | >34 | 175 | 161 | 627 |
| CCc1cc2n(CC(=O)Nc3ccc(F)cn3)c3c(c(=O)n2n1)CN([C@@H](C)COC)C3=O [Example 46] | 14000 | 385 | 59 | 28 | 36 |
| CC[C@@H](C)N1Cc2c(n(CC(=O)Nc3ccc(Cl)cn3)c3cc(C(F)(F)F)nn3c2=O)C1=O [Example 15] | 4650 | 88 | 49 | 21 | 53 |
| COC[C@H](C)N1Cc2c(n(CC(=O)Nc3ccc(F)cn3)c3cc(C4CCOCC4)nn3c2=O)C1=O [Example 40] | > 23500 | >758 | 26 | 20 | 31 |
| COC[C@H](C)N1Cc2c(n(CC(=O)Nc3ccc(F)cn3)c3cc(C)nn3c2=O)C1=O [Example 41] | > 32000 | >393 | 51 | 55 | 82 |
| Cc1cc2n(CC(=O)Nc3ccc(F)cn3)c3c(c(=O)n2n1)CN([C@@H](C)C1CC1)C3=O [Example 50] | 8700 | 56 | 215 | 117 | 155 |
| CC(C)N1Cc2c(n(CC(=O)Nc3ccc(F)cn3)c3cc(C(C)(C)C)nn3c2=O)C1=O [Example 1, 2-[2-tert-butyl-5,8-dioxo-6-(propan-2-yl)-5,6,7,8-tetrahydro-4H-pyrazolo[1,5-a]pyrrolo[3,4-d]pyrimidin-4-yl]-N-(5-fluoropyridin-2-yl)acetamide] | 4900 | 138 | 35 | 22 | 35 |
| COC[C@H](C)N1Cc2c(n(CC(=O)Nc3ccc(F)cn3)c3cc(C(C)C)nn3c2=O)C1=O [Example 39] | 7550 | 308 | 29 | 14 | 25 |
| CC[C@H](C)N1Cc2c(n(CC(=O)Nc3ccc(Cl)cn3)c3cc(C(F)(F)F)nn3c2=O)C1=O [Example 22] | 2850 | 35 | 81 | 56 | 82 |
| Cc1ccc(NC(=O)Cn2c3c(c(=O)n4nc(C(C)C)cc24)CN(C(C)C)C3=O)nc1 [Example 9] | > 19900 | >76 | 220 | 107 | 263 |
| COCC(C)N1Cc2c(n(CC(=O)Nc3ccc(F)cn3)c3cc(Br)nn3c2=O)C1=O (centres unmarked) [Example 36, 2-[2-bromo-6-(1-methoxypropan-2-yl)-5,8-dioxo-5,6,7,8-tetrahydro-4H-pyrazolo[1,5-a]pyrrolo[3,4-d]pyrimidin-4-yl]-N-(5-fluoropyridin-2-yl)acetamide] | > 20900 | >368 | 44 | 34 | 57 |
| Cc1ccc(NC(=O)Cn2c3c(c(=O)n4nc(C(C)(C)C)cc24)CN([C@@H](C)C(C)C)C3=O)nc1 [Example 11] | > 20600 | >31 | 750 | 376 | 657 |
| CC[C@H](C)N1Cc2c(n(CC(=O)Nc3ccc(C)cn3)c3cc(C(F)(F)F)nn3c2=O)C1=O [Example 21] | 12400 | 53 | 180 | 164 | 233 |
| COCC(C)N1Cc2c(n(CC(=O)Nc3ccc(F)cn3)c3cc(C(C)(C)C)nn3c2=O)C1=O (centres unmarked) [Example 25] | 7150 | 624 | 23 | 10 | 11 |
| CC(C)N1Cc2c(n(CC(=O)Nc3ccc(F)cn3)c3cc(C(F)(F)F)nn3c2=O)C1=O [Example 31] | > 32000 | >116 | 120 | 130 | 277 |
| Cc1ccc(NC(=O)Cn2c3c(c(=O)n4nc(C(C)(C)C)cc24)CN(C2COC2)C3=O)nc1 [Example 47] |  |  | 1100 | 1220 |  |
| CC(C)(C)c1cc2n(CC(=O)Nc3ccc(F)cn3)c3c(c(=O)n2n1)CN(CCOCc1ccccc1)C3=O [Example 34, 2-{6-[2-(Benzyloxy)ethyl]-2-tert-butyl-5,8-dioxo-5,6,7,8-tetrahydro-4H-pyrazolo[1,5-a]pyrrolo[3,4-d]pyrimidin-4-yl}-N-(5-fluoropyridin-2-yl)acetamide] |  |  |  | 4 |  |
| COCC(C)N1Cc2c(n(CC(=O)Nc3ccc(F)cn3)c3cc(CO)nn3c2=O)C1=O (racemic) [Example 141, N-(5-fluoropyridin-2-yl)-2-{2-(hydroxymethyl)-6-[(±)-1-methoxypropan-2-yl]-5,8-dioxo-5,6,7,8-tetrahydro-4H-pyrazolo[1,5-a]pyrrolo[3,4-d]pyrimidin-4-yl}acetamide] |  |  |  | 125 |  |
| CC(C)N1Cc2c(n(CC(=O)Nc3ccc(F)cn3)c3cc(N4CCN(C)CC4)nn3c2=O)C1=O [Example 181, N-(5-fluoropyridin-2-yl)-2-[2-(4-methylpiperazin-1-yl)-5,8-dioxo-6-(propan-2-yl)-5,6,7,8-tetrahydro-4H-pyrazolo[1,5-a]pyrrolo[3,4-d]pyrimidin-4-yl]acetamide] | 5550 | 173 | 63 |  | 32 |
| CCc1cc2n(CC(=O)Nc3ccc(F)cn3)c3c(c(=O)n2n1)CN(C1CCN(C(=O)OC(C)(C)C)C1)C3=O (centres unmarked) [Example 78] | 6100 | 98 | 21 |  | 62 |

— patent US11319324B2, “Pyrazolo-pyrrolo-pyrimidine-dione derivatives as P2X3 inhibitors” (Bayer Aktiengesellschaft, priority 2017, dated 2022)
